Test results: US20240059688A1, “CONOLIDINE ANALOGUES AS SELECTIVE ACKR3 MODULATORS FOR THE TREATMENT OF CANCER” (Luxembourg Institute of Health (LIH), priority 2020, published 2024)

How the values were obtained:
Type in all cases: cell-based
ACKR3 [1] = target: T1, ACKR3 (Homo sapiens, UniProt P25106); test: ACKR3 β-arrestin recruitment assay (PathHunter, β-galactosidase complementation); conditions: for Emax: read-out: ACKR3 β-arrestin % CXCL12 Emax ± SEM; for EC50: stable human ACKR3-β-arrestin-2-CHO cells, mean ± SEM, at least two independent experiments in duplicate
Procedure, shortened: (§1)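 Agonist mode in PathHunter CHO cells expressing human ACKR3-β-arrestin-2, compounds added in DPBS/1% DMSO for 1.5 hr at 37° C, then detection 1 hr at room temperature, luminescence read. CXCR4 run in C2C12 cells with a 3 hr Cell Plating Reagent 4 preincubation. EC50 and % Emax from three-parameter fits, CXCL-12 as reference agonist; ≥2 independent experiments in duplicate.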
Target sequence in this assay (P25106 whole entry): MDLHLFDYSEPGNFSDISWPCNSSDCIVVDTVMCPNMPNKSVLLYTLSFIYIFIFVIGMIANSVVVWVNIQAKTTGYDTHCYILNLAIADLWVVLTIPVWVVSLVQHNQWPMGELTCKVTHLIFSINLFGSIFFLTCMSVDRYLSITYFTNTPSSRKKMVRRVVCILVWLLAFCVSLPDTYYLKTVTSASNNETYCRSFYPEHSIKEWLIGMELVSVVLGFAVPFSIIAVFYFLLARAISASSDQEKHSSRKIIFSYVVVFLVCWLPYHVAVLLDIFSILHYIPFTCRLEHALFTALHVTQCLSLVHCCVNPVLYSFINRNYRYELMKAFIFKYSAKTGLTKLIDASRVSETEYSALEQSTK

human CXCR4 = target: T2, human CXCR4 (Homo sapiens, UniProt P61073); test: CXCR4 β-arrestin recruitment assay (PathHunter); conditions: human CXCR4-C2Cl2 cells, relative to CXCL-12
T2 construct: host or cells: C2C12
T2 sequence (P61073 whole entry): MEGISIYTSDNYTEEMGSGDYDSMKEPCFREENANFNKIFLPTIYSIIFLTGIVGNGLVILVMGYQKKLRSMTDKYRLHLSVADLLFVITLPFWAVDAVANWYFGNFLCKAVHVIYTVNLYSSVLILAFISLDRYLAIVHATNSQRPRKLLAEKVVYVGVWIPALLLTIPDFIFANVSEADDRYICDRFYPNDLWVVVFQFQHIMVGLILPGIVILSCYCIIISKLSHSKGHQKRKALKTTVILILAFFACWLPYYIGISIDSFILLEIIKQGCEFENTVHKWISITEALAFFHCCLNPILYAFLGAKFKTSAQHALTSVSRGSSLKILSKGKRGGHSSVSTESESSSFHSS
Procedure, shortened: as §1

ACKR3 [2] = target: T1, ACKR3; test: GPCR β-arrestin screening (PathHunter gpcrMAX/orphanMAX), ACKR3; conditions: conolidine 10 μM; over 240 receptors tested
Experimental: (§2) In an effort to identify the target of conolidine among the GPCR family, we undertook a large scale screening program using a β-arrestin recruitment assay based on β-galactosidase complementation (PathHunter, DiscoverX). Over 240 receptors were tested for their ability to be activated or inhibited by conolidine (10 μM) (data not shown). These included 168 GPCRs from the gpcrMAX panel, covering over 60 distinct receptor families such as adrenergic, dopamine, P2Y or serotonin and 74 GPCRs from the orphanMAX panel.
Target sequence in this assay (P25106 whole entry): as the sequence (P25106 whole entry) above

ADRA2B = target: T3, ADRA2B (Homo sapiens, UniProt P18089); test: GPCR β-arrestin screening (PathHunter gpcrMAX/orphanMAX), ADRA2B; conditions: conolidine 10 μM
T3 sequence (P18089 1-450): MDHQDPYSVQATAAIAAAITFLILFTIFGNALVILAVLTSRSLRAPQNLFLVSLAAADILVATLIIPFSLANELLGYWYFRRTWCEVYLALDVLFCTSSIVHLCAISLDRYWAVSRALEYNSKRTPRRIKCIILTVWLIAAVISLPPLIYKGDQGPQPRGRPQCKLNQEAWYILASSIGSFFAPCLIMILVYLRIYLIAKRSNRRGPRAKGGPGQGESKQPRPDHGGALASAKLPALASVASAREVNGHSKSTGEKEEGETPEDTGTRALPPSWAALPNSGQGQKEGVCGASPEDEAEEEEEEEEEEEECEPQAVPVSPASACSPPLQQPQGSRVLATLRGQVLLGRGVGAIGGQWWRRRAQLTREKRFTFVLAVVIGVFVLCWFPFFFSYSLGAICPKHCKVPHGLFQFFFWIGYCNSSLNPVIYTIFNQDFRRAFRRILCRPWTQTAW
Experimental: as §2

[3] = target: cannabinoid receptor 2 (CNR2) (Homo sapiens, UniProt P34972); test: GPCR β-arrestin screening (PathHunter gpcrMAX/orphanMAX), CNR2; conditions: conolidine 10 μM
Sequence of cannabinoid receptor 2 (CNR2) (P34972 whole entry): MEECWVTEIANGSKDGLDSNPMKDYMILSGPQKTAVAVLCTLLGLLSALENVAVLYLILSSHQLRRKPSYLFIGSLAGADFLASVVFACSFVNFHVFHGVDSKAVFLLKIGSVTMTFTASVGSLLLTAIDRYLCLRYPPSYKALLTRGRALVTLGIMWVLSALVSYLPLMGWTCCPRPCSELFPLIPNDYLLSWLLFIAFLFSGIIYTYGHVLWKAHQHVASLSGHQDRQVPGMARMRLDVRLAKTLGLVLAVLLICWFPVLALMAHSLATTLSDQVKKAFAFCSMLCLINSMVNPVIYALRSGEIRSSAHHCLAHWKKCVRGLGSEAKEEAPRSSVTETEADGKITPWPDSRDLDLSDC
Experimental: as §2

ACKR3 [4] = target: T1, ACKR3; test: NanoBiT β-arrestin-1 recruitment, receptor selectivity panel, ACKR3; parameters: expressed in transfected cells; host or cells: U87; conditions: for modulation of ACKR3 in comparison with opioid receptor reference molecules (β-arrestin1 recruitment): NanoBiT, ACKR3 versus MOR, DOR, KOR, NOP, FIG. 5; for activation of ACKR3 (β-arrestin-1 recruitment) in receptor panel: concentration of 1 μM, FIG. 3 section A
Experimental: To further assess the selectivity profile of the compounds of the invention towards ACKR3, the ability to activate the 21 classical and 4 atypical chemokines receptors and related receptors was tested using the NanoBiT assay based β-arrestin-1 recruitment described previously. The 4 classical opioid receptors described above were also included in the experimental setup. The compounds WW-1 (conolidine) and WW-12 were tested at three different concentrations, 1 μM, 3 μM and 10 μM.
The ability of the compounds of the invention to activate ACKR3 and classical opioid receptors with reference synthetic molecules and approved pain medications such as morphine, fentanyl or buprenorphine that are known to modulate the classical opioid receptors MOR, DOR, KOR and NOP was also tested in NanoBiT based β-arerstin1 recruitment assay. […] The results are depicted in FIG. 5.
Ligand-induced β-arrestin recruitment to chemokine and opioid receptors was monitored by NanoLuc complementation assay (NanoBiT, Promega). In brief, 1.2×10^6 U87 cells were plated in 10-cm culture dishes and 48 hours later co-transfected with pNBe vectors encoding GPCRs (ACKR3, MOR, DOR, KOR, or NOP) C-terminally tagged with SmBiT and human β-arrestin-1 (arrestin-2) or β-arrestin-2 (arrestin-3) N-terminally fused to LgBiT. 48 hours post-transfection cells were harvested, incubated 25 minutes at 37° C. with Nano-Glo Live Cell substrate diluted 200-fold and distributed into white 96-well plates (5×10^4 cells per well). Ligand-induced, β-arrestin to GPCRs was evaluated with a Mithras LB940 luminometer (Berthold Technologies, running on MicroWin 2010 5.19 software (Mikrotek Laborsysteme)) for 20 minutes.
For single dose screening experiments on all chemokine receptors(FIG. 3), the results are represented as percentage of signal monitored with 100 nM of one known agonist chemokine listed in the IUPHAR repository of chemokine receptor ligands which was added as positive control.
Target sequence in this assay (P25106 whole entry): as the sequence (P25106 whole entry) above
Target sequence in this assay (P49407 whole entry partner): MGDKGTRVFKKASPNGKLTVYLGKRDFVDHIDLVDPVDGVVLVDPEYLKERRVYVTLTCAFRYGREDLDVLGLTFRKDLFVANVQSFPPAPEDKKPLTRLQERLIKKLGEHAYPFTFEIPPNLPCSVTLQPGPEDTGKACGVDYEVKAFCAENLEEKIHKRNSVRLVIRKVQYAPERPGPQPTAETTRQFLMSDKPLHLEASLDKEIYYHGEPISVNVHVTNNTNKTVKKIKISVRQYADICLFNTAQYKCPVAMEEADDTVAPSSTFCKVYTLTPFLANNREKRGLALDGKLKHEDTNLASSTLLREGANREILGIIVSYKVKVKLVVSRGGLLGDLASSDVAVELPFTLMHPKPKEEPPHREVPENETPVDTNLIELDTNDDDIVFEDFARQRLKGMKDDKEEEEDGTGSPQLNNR

ACKR3 [5] = target: T1, ACKR3; test: Ligand-induced ACKR3 delivery to early endosomes (NanoBRET, U87 cells); parameters: expressed in transfected cells; host or cells: U87-ACKR3 (ACKR3-negative U87 as control); conditions: ACKR3-Nanoluciferase / FYVE-mNeonGreen, FIG. 6 section B
Experimental: Ligand-induced receptor-arrestin delivery to early endosomes was monitored by NanoBRET. In brief, 1.2×10^6 U87 cells were seeded in 10-cm dishes and co-transfected with plasmids encoding ACKR3, C-terminally tagged with Nanoluciferase and FYVE domain of endofin interacting with phosphatidylinositol 3-phosphate (PI3P) in early endosomes46,47, N-terminally tagged with mNeonGreen. 48h post-transfection, cells were distributed into black 96-well plates (1×10^5 cells per well) and treated with full-length or processed chemokines. After 2-hour incubation at 37° C., coelenterazine H (10 μM) was added and donor emission (460 nm) and acceptor emission (535 nm) were immediately measured on a GloMax plate reader (Promega).
Target sequence in this assay (P25106 whole entry): as the sequence (P25106 whole entry) above

SMILES | Emax (ACKR3 [1]) | EC50 (ACKR3 [1]) | CXCR4 β-arrestin % CXCL-12Emax (n = 2) (human CXCR4) | response of ACKR3 in GPCR screening (ACKR3 [2]) | activity towards ADRA2B in GPCR screening (ADRA2B) | activation of CNR2 in GPCR screening [3] | modulation of ACKR3 in comparison with opioid receptor reference molecules (β-arrestin1 recruitment) (ACKR3 [4]) | activation of ACKR3 (β-arrestin-1 recruitment) in receptor panel (ACKR3 [4]) | ACKR3 delivery to the endosomes (ACKR3 [5])
C/C=C1/CN2CC[C@H]1C(=O)c1[nH]c3ccccc3c1C2 [WW-1, (4E,5R)-4-ethylidene-1,4,5,7-tetrahydro-2,5-ethanoazocino[4,3-b]indol-6(3H)-one] | 181 ± 4% | 27.3 ± 0.44 µM | 3% | most responsive receptor | No activity was detected | only partially activated | specific ACKR3 activators | activated ACKR3 | delivery to the endosomes
C/C=C1/CN(CCCCC)CC[C@H]1C(=O)c1cc2ccccc2[nH]1 [WW-12, [(3E,4R)-3-ethylidene-1-pentylpiperidin-4-yl](1H-indol-2-yl)methanone] | 140 ± 11% | 0.353 ± 0.019 µM | 4% |  |  |  | specific ACKR3 activators | activated ACKR3 | delivery to the endosomes
